This note sets out measurements from patent US8598314B2 (priority 2007, dated 2013).

In experiment [1] the test system is NIH/Swiss mice. Kind of experiment: Oral glucose tolerance test (OGTT), glucose lowering. The experiment is classed as in vivo. The settings on record: 30 nM/kg, blood glucose. As to the method:
. Test compounds were injected IP (t=0 min) immediately following baseline measurements of 2 hour fasted NIH/Swiss mice. Blood samples were taken at 60, 120, and 180 minutes after injection. In some assays, samples were also taken at 240 minutes after the injection. Blood glucose was measured with a One-Touch® Ultra® glucose meter (LifeScan, Inc., Milpitas, Calif.). […].
The tests were performed as described in Example 5.

The target of experiment [2] is T1, human GIP receptor (HEK-GIPR) (Homo sapiens, UniProt P48546).
T1 construct: expressed in transfected cells
T1 sequence (P48546 22-466): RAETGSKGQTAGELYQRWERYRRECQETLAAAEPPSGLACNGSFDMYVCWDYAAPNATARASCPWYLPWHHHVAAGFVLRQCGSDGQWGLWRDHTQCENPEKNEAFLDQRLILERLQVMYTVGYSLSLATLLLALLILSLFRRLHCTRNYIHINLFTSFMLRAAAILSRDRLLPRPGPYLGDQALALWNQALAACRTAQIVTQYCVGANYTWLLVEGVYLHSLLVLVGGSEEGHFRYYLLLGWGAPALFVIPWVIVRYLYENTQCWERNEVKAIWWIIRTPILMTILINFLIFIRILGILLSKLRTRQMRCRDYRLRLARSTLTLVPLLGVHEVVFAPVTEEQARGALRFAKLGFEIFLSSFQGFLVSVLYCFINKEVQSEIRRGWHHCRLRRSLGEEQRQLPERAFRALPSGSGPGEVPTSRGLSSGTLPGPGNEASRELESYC
The experiment is described as follows: GIP receptor binding (RBA) displacement assay. The note with it: for inhibition at 0.01 µM: read-out: GIP RBA % inhibition at 10 nM. As to the method: Membrane fractions were prepared from confluent cell cultures of HEK-GIPR, snap frozen, and stored at −80° C. until use. […] Reactions were allowed to proceed to equilibrium for 90 minutes at room temperature with constant shaking. The reaction mixtures were then filtered through 96-well glass fiber filter plates separating bound and unbound fractions of radioligand.

“[^14Leu] GIP(1-30)-exendin-4(31-39)-Ado-Lys-N-ε-(2-(S)-cyano pyrrolidyl)”: the “OGTT (30 nM/kg) % maximal decrease” value in experiment [1] is −24%. Also, the “GIP RBA % inhibition at 10 nM” value in experiment [2] (10 nM conjugate, 30 pM 125I-GIP, relative to human GIP (100%)) is given as 99%. A word on the inhibition: it is the change of the read-out against control, counted positive when it falls. With `CC[C@H](C)[C@H](NC(=O)[C@H](CO)NC(=O)[C@H](Cc1ccc(O)cc1)NC(=O)[C@H](CC(=O)O)NC(=O)[C@H](CO)NC(=O)[C@@H](NC(=O)[C@H](Cc1ccccc1)NC(=O)[C@@H](NC(=O)CNC(=O)[C@H](CCC(=O)O)NC(=O)[C@@H](C)NC(=O)[C@@H](N)Cc1ccc(O)cc1)[C@@H](C)O)[C@@H](C)CC)C(=O)N[C@@H](C)C(=O)N[C@@H](CC(C)C)C(=O)N[C@@H](CC(=O)O)C(=O)N[C@@H](CCCCN)C(=O)N[C@H](C(=O)N[C@@H](Cc1c[nH]cn1)C(=O)N[C@@H](CCC(N)=O)C(=O)N[C@@H](CCC(N)=O)C(=O)N[C@@H](CC(=O)O)C(=O)N[C@@H](Cc1ccccc1)C(=O)N[C@H](C(=O)N[C@@H](CC(N)=O)C(=O)N[C@@H](Cc1c[nH]c2ccccc12)C(=O)N[C@@H](CC(C)C)C(=O)N[C@@H](CC(C)C)C(=O)N[C@@H](C)C(=O)N[C@@H](CCC(N)=O)C(=O)N[C@@H](CCCCN)C(=O)NCCC(=O)NCCC(=O)NCCCC[C@H](NC(=O)[C@@H]1CCC(=O)N1)C(=O)N[C@@H](Cc1c[nH]c2ccccc12)C(=O)N[C@@H](C)C(=O)N1CCC[C@H]1C(=O)O)C(C)C)[C@@H](C)CC` [[^2D-Ala,^14Leu] GIP-(1-30)-β-Ala-β-Ala-Lys(α-NH-Pyroglutamoyl)-Trp-Ala-Pro-COOH], the inhibition at 0.01 µM in experiment [2] was 66%. Regarding `CC[C@H](C)[C@H](NC(=O)[C@H](CO)NC(=O)[C@H](Cc1ccc(O)cc1)NC(=O)[C@H](CC(=O)O)NC(=O)[C@H](CO)NC(=O)[C@@H](NC(=O)[C@H](Cc1ccccc1)NC(=O)[C@@H](NC(=O)CNC(=O)[C@H](CCC(=O)O)NC(=O)[C@H](C)NC(=O)[C@H](Cc1ccc(O)cc1)NC(=O)COCCOCCNC(=O)COCCOCCNC(=O)CC[C@H](N)C(=O)N1CCC[C@H]1C#N)[C@@H](C)O)[C@@H](C)CC)C(=O)N[C@@H](C)C(=O)N[C@@H](CCSC)C(=O)N[C@@H](CC(=O)O)C(=O)N[C@@H](CCCCN)C(=O)N[C@H](C(=O)N[C@@H](Cc1c[nH]cn1)C(=O)N[C@@H](CCC(N)=O)C(=O)N[C@@H](CCC(N)=O)C(=O)N[C@@H](CC(=O)O)C(=O)N[C@@H](Cc1ccccc1)C(=O)N[C@H](C(=O)N[C@@H](CC(N)=O)C(=O)N[C@@H](Cc1c[nH]c2ccccc12)C(=O)N[C@@H](CC(C)C)C(=O)N[C@@H](CC(C)C)C(=O)N[C@@H](C)C(=O)N[C@@H](CCC(N)=O)C(=O)NC(CCCCN)C(N)=O)C(C)C)[C@@H](C)CC` (stereo partly drawn) [N-(γ-L-Glu-2-(S)-cyanopyrrolidyl)-Ado-Ado) GIP(1-30)], the inhibition at 0.01 µM in experiment [2] amounted to 32%.

As for `CC[C@H](C)[C@H](NC(=O)[C@H](CO)NC(=O)[C@H](Cc1ccc(O)cc1)NC(=O)[C@H](CC(=O)O)NC(=O)[C@H](CO)NC(=O)[C@@H](NC(=O)[C@H](Cc1ccccc1)NC(=O)[C@@H](NC(=O)CNC(=O)[C@H](CCC(=O)O)NC(=O)[C@@H](C)NC(=O)[C@@H](N)Cc1ccc(O)cc1)[C@@H](C)O)[C@@H](C)CC)C(=O)N[C@@H](C)C(=O)N[C@@H](CCSC)C(=O)N[C@@H](CC(=O)O)C(=O)N[C@@H](CCCCN)C(=O)N[C@H](C(=O)N[C@@H](Cc1c[nH]cn1)C(=O)N[C@@H](CCC(N)=O)C(=O)N[C@@H](CCC(N)=O)C(=O)N[C@@H](CC(=O)O)C(=O)N[C@@H](Cc1ccccc1)C(=O)N[C@H](C(=O)N[C@@H](CC(N)=O)C(=O)N[C@@H](Cc1c[nH]c2ccccc12)C(=O)N[C@@H](CC(C)C)C(=O)N[C@@H](CC(C)C)C(=O)N[C@@H](C)C(=O)N[C@@H](CCC(N)=O)C(=O)N[C@@H](CCCCN)C(=O)NCCOCCOCC(=O)NCCOCCOCC(=O)NCCCCCCCCCCC(=O)NCCC(=O)NCCC(=O)NCCCC[C@H](NC(=O)[C@@H]1CCC(=O)N1)C(=O)N[C@@H](Cc1c[nH]c2ccccc12)C(=O)N[C@@H](C)C(=O)N1CCC[C@H]1C(=O)O)C(C)C)[C@@H](C)CC` [[^2D-Ala]GIP-(1-30)-Ado-Ado-Aun-βAla-βAla-ε-NH-Lys(α-NH-Pyroglutamoyl)-Trp-Ala-Pro], in experiment [2], the inhibition at 0.01 µM stood at 70%.
